Key:
A2780 = assay: In vitro cytotoxicity, IC50 by flow cytometry (Guava ViaCount); assay type: cell-based, human
Summary of the method: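 Suspension lines kept in RPMI 1640 with 10% FBS and […] at 37 °C, 5% CO2; cells seeded at 5 × 10^4 per well and incubated overnight before compound exposure. Viability counted by flow cytometry with Guava ViaCount staining to derive IC50.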

HL60 = assay: as above; assay type: cell-based, human
Summary of the method: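 Cells were grown at 37 °C under 5% CO2; the Jurkat, K562 and HL60 lines were kept in RPMI 1640 with 10% FBS, […] and penicillin–streptomycin. Cells were seeded at 5 × 10^4 per well and incubated overnight. IC50 was derived from Guava ViaCount flow cytometry.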

[1] = test system: mitochondria of Jurkat tumor cells; assay: Mitochondrial damage (MitoSense Red staining); assay type: cell-based; conditions: compound at IC50 concentration, incubation 2 h
STAT5 = assay: Luminex xMAP Multi-Pathway 9-plex, tyrosine-phosphorylated STAT5; assay type: cell-based; conditions: Jurkat cells; 12a 0.006 µM, 13d 0.004 µM per 100,000 cells; lasting up to 12 h
Text: (§1) The determination of proteins in a cell by Luminex xMAP technology is characterized by the presence of multiplex multiparametric analysis with the simultaneous use of a multiplex of antibodies with a fluorescent label and magnetic particles, thereby resulting in an increase in the sensitivity of the technique and expansion of the dynamic range, as well as an increase in detection accuracy. Luminex XMAP technology provides a simultaneous analysis of a sufficient number of different proteins in various types of biological fluids (plasma, serum, cerebrospinal fluid, follicular fluid, tissue lysate, etc.) and in cell supernatants. […]
(§2) Magnetic microspheres (stained inside with two fluorescent dyes) in combination with monoclonal antibodies against the analyzed analytes (the main intracellular kinases in this case) are incubated with the samples and standards; then, the samples/standards are incubated with biotinylated monoclonal antibodies against the analyzed analytes and, finally, with a solution of streptavidin–phycoerythrin. The Luminex technology identifies the different proteins present in each well and converts the mean fluorescence intensity (MFI) of each measured cytokine to pg/mL using software and standard curves. […]
(§3) The specific role of STAT3 and STAT5 was assessed by changes in the content of tyrosine-phosphorylated forms of these proteins (STAT3(ph) and STAT5(ph)). […]

STAT3 = assay: Luminex xMAP Multi-Pathway 9-plex, tyrosine-phosphorylated STAT3; assay type: cell-based; conditions: Jurkat cells; 12a 0.006 µM, 13d 0.004 µM per 100,000 cells; up to 12 h; compared with STAT5 (3-fold)
Text: as §1, §2, §3

Chk1 = assay: Luminex xMAP DNA Damage/Genotoxicity panel, phosphorylated Chk1; assay type: cell-based; conditions: Jurkat cells; 12a 0.006 µM, 13d 0.004 µM per 100,000 cells; 6 and 12 h
Text: [Worded in the source for another target; used here, by the source, with some conditions changed.] (§4) The determination of proteins in a cell by Luminex xMAP technology is characterized by the presence of multiplex multiparametric analysis with the simultaneous use of a multiplex of antibodies with a fluorescent label and magnetic particles, thereby resulting in an increase in the sensitivity of the technique and expansion of the dynamic range, as well as an increase in detection accuracy. Luminex XMAP technology provides a simultaneous analysis of a sufficient number of different proteins in various types of biological fluids (plasma, serum, cerebrospinal fluid, follicular fluid, tissue lysate, etc.) and in cell supernatants. Consequently, multiplexing saves time/costs and ensures the same conditions for the measurements, which is essential for significance and statistical processing.
(§5) Magnetic microspheres (stained inside with two fluorescent dyes) in combination with monoclonal antibodies against the analyzed analytes (the main intracellular kinases in this case) are incubated with the samples and standards; then, the samples/standards are incubated with biotinylated monoclonal antibodies against the analyzed analytes and, finally, with a solution of streptavidin–phycoerythrin. The Luminex technology identifies the different proteins present in each well and converts the mean fluorescence intensity (MFI) of each measured cytokine to pg/mL using software and standard curves. This approach is successfully applied in fundamental and clinical research. In this work, we analyzed various protein analytes that make up the phosphorylated and non-phosphorylated fractions of the main kinases in the signaling pathways: CREB, JNK, NFkB, p38, ERK1/2, Akt, p70S6K, STAT3, STAT5 proteins in six samples of lysates of Jurkat tumor cells by Luminex technology (MILLIPLEX® MAP 9-Plex Multi-Pathway 9-plex Magnetic Bead Kit).

Chk2 = assay: Luminex xMAP DNA Damage/Genotoxicity panel, phosphorylated Chk2; assay type: cell-based; conditions: Jurkat cells; 12a 0.006 µM, 13d 0.004 µM per 100,000 cells; 6 and 12 h
Text: [Worded in the source for another target; used here, by the source, with some conditions changed.] as §4, §5

γH2AX = assay: Luminex xMAP DNA Damage/Genotoxicity panel, phosphorylated γH2AX; assay type: cell-based; conditions: Jurkat cells; 6 and 12 h
Text: as §4, with “processing. Simultaneous measurement of cytokines by bead multiplex analysis has certain similarities with ELISA, in particular the use of antibodies, but has a fundamental difference in using magnetic fluorescent beads coupled to antikinase monoclonal antibodies.” for “processing.”
as §5
Phosphorylation of histone H2AX at serine 139 (γH2AX) is an early stage in the cellular response to DNA damage, when the damage brings about formation of a double-strand break (DSB). γH2AX foci, considered as markers of DNA double-strand breaks, are easily detected by immunofluorescence microscopy and flow cytometry. The two main signaling pathways ATM/Chk2 and ATR/Chk1 respond to DNA damage and both lead to H2AX phosphorylation, but the ATR/Chk1 pathway causes γH2AX formation to a much lesser extent. The role of γH2AX in DNA repair is also discussed.
Incubation time with the test compounds was 6 and 12 h. p < 0.001 (***).

p21 = assay: Luminex xMAP panel, p21 protein content; assay type: cell-based; conditions: Jurkat cells; 12a 0.006 µM, 13d 0.004 µM per 100,000 cells; first 6 h

Structure (SMILES)	IC50 (A2780; Homo sapiens, A2780, A2780 cells) [nM]	IC50 (HL60; Homo sapiens, HL-60, HL60 cells) [nM]	Mito-Damage (%) [1] [%]	increase in the content of STAT5 (STAT5) [fold]	increase in the content of STAT3 (STAT3)	content of phosphorylated checkpoint kinase Chk1 (Chk1)	content of phosphorylated checkpoint kinase Chk2 (Chk2)	level of γH2AX (accumulation) (γH2AX)	expression of p21 protein (p21)	IC50 (A2780; A2780 cells) [nM]	IC50 (HL60; HL60 cells) [nM]
CC1(C)CC[C@]2(C(=O)OCCCCCC[n+]3ccccc3)CC[C@]3(C)C(=CCC4[C@@]5(C)CC[C@H](O)C(C)(C)C5CC[C@]43C)C2C1 (stereo partly drawn) [12a, 1-(6-{[(3β)-3-Hydroxyolean-12-en-28-oyl]oxy}hexyl)-pyridinium bromide]	21 ± 2	3 ± 1	97.89	3	to a lesser extent	significantly decreases	significantly decreases	low levels	significantly increased		
CC(=O)[O-].C[n+]1ccn(CCCCCCOC(=O)[C@]23CCC(C)(C)CC2C2=CCC4[C@@]5(C)CC[C@H](O)C(C)(C)C5CC[C@@]4(C)[C@]2(C)CC3)c1 (stereo partly drawn) [13d, 1-(6-{[(3β)-3-Hydroxyolean-12-en-28-oyl]oxy}hexyl)-3-methylimidazolium Acetate]			97.47	3	to a lesser extent	significantly decreases	significantly decreases	low levels	significantly increased	16 ± 2	2 ± 1
